Reference: patent US20260217683A1, “PYRIDAZINONE HETEROCYCLIC COMPOUND MYOSIN II INHIBITOR AND USE THEREOF” (Xizang Haisco Pharmaceutical Co., Ltd., priority 2023, published 2026)

Tests used:
[1] = molecular target: T1, hERG potassium ion channel (Homo sapiens, UniProt Q12809); test: Effect on hERG potassium ion channel (manual patch-clamp, CHO cells); assay type: cell-based; conditions: CHO cells stably expressing hERG, whole cell patch-clamp; read-out: IC50 of the inhibitory effect on hERG potassium channel current
T1 construct: expressed in transfected cells
Excerpt: 1. Experimental platform: electrophysiological manual patch-clamp system
2. Cell line: Chinese hamster ovary (CH—O) cell lines stably expressing hERG potassium ion channel
3. Experimental method: in CHO (Chinese Hamster Ovary) cells stably expressing hERG potassium channel, whole cell patch-clamp technique was used to record hERG potassium channel current at room temperature. The glass microelectrode was made of a glass electrode blank (BF150-86-10, Sutter) by a puller. The tip resistance after filling the liquid in the electrode was about 2-5 MQ. The glass microelectrode can be connected to the patch-clamp amplifier by inserting the glass microelectrode into an amplifier probe. The clamping voltage and data recording were controlled and recorded by the pClamp 10 software through a computer. The sampling frequency was 10 kHz, and the filtering frequency was 2 kHz. After the whole cell records were obtained, the cells were clamped at −80 mV, and the step voltage that induced the hERG potassium current (IhERG) was depolarized from −80 mV to +20 mV for 2 s, then repolarized to −50 mV, and returned to −80 mV after 1 s. This voltage stimulation was given every 10 s, and the administration process was started after the hERG potassium current was confirmed to be stable (at least 1 minute). The compound was administered for at least 1 minute at each test concentration, and at least 2 cells (n≥2) were tested at each concentration.
4. Data processing: Data analysis processing was carried out by using pClamp 10, GraphPad Prism 5 and Excel software. The inhibition degree of hERG potassium current (peak value of hERG tail current induced at −50 mV) at different compound concentrations was calculated by the following formula:
[formula] • where Inhibition % represents the percentage of inhibition of hERG potassium current by the compound, and I and Io represent the amplitude of hERG potassium current after and before the administration, respectively.
Compound IC50 was calculated using GraphPad Prism 5 software by fitting according to the following equation: […]
Among the equation, X represents the Log value of the tested concentration of the test sample, Y represents the inhibition percentage at the corresponding concentration, and Bottom and Top represent the minimum and maximum inhibition percentage, respectively.

[2] = Pharmacokinetic experiment of beagle dogs; assay type: in vivo; conditions: male, dog, plasma, oral, beagles, intragastric 3 mg/kg vs intravenous 1 mg/kg, read-out: bioavailability (F)
Protocol: 1. Experimental animals: male beagle dogs, about 8-11 kg, 6 beagle dogs/compound, purchased from Beijing Marshall Biotechnology Co., Ltd.
2. Experimental method: On the day of the test, (6×number of test compounds (n)) beagles were randomly divided into groups according to body weight. The animals were fasted with water available for 12 to 14 h one day before the administration and were fed 4 h after the administration. Administration was performed as per Table 6.
• Before and after the administration, 1 mL of blood was taken from the jugular veins or limb veins, and placed in an EDTAK2 centrifuge tube. Centrifugation was performed at 5000 rpm at 4° C. for 10 min, and plasma was collected. The blood collection time points for the intravenous group and intragastric administration group were: 0 min, 5 min, 15 min, 30 min, 1 h, 2 h, 4 h, 6 h, 8 h, 10 h, 12 h, 24 h, 48 h, 72 h, and 96 h. Before analysis and detection, all samples were stored at −80° C. The samples were analyzed quantitatively by LC-MS/MS.

T1 sequence (Q12809 whole entry): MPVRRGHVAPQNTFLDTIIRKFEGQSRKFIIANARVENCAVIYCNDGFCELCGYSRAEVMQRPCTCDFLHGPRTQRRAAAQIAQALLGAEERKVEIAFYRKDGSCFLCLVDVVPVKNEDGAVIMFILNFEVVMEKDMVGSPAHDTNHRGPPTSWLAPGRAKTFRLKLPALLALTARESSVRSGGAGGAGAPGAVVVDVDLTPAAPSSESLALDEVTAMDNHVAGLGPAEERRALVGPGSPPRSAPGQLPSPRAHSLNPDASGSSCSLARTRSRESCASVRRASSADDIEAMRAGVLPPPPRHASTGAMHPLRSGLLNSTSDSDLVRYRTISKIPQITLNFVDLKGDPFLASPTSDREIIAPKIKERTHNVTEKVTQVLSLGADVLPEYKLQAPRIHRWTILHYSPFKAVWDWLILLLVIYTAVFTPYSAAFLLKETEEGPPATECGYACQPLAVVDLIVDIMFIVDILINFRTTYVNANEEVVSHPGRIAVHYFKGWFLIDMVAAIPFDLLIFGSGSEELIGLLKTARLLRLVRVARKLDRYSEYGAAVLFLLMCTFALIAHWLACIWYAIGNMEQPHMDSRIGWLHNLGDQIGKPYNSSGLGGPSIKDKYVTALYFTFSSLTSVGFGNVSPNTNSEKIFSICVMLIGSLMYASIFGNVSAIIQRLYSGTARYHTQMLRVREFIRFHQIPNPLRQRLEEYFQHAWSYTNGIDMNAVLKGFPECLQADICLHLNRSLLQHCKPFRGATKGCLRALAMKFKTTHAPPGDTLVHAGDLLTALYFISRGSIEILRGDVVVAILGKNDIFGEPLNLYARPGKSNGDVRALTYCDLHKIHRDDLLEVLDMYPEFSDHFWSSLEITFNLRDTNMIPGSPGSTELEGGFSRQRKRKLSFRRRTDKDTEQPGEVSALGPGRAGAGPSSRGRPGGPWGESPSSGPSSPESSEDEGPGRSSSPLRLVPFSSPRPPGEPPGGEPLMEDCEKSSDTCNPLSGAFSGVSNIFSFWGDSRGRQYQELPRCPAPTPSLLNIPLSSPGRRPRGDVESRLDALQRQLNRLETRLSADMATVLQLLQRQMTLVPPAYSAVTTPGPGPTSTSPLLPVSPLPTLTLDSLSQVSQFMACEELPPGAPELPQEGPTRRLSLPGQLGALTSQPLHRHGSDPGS

bioavailability [2] [%] | SMILES | IC50 [1] [µM]
 | N#CC1(COc2ncc(-c3ccc(=O)n(Cc4ccc5c(c4)C(=O)CC5)n3)cn2)CC1 [Compound 158] | > 40
 | O=c1ccc(-c2cnc(OCC(F)(F)F)nc2)nn1Cc1ccc2c(c1)CCC2 [Compound 57] | > 40
 | O=C1CCc2c(F)cc(Cn3nc(-c4cnc(O[C@H]5CCOC5)nc4)ccc3=O)cc21 [Compound 165] | > 40
 | O=C1CCc2ccc(Cn3nc(-c4cnc(OC5COCC5(F)F)nc4)ccc3=O)cc21 (stereo not drawn) [Compound 164] | > 40
 | O=C1CCc2ccc(Cn3nc(-c4cnc(O[C@H]5CCOC5)nc4)ccc3=O)cc21 [Compound 150] | > 40
112 | O=C1CCc2ccc(Cn3nc(-c4cnc(OCC(F)F)nc4)ccc3=O)cc21 [Compound 131] | 
